Data on 4 molecules can be found in patent publication US4971966A, “Substituted pyrido(2,3-B) (1,4) benzodiazepin-6-ones, and medicaments containing these compounds” (Karl Thomae GmbH, priority 1986, dated 1990).

Read-outs that look alike come from different tables or passages of the source.

Assay [1] deals with T1, muscarinic receptors, lacrimal glands (Rattus norvegicus, UniProt P08483).
T1 construct: the heart, the bronchi and the lacrimal glands were removed; from tissue; host or cells: rat lacrimal glands, labelled in vivo
T1 sequence (P08483 whole entry): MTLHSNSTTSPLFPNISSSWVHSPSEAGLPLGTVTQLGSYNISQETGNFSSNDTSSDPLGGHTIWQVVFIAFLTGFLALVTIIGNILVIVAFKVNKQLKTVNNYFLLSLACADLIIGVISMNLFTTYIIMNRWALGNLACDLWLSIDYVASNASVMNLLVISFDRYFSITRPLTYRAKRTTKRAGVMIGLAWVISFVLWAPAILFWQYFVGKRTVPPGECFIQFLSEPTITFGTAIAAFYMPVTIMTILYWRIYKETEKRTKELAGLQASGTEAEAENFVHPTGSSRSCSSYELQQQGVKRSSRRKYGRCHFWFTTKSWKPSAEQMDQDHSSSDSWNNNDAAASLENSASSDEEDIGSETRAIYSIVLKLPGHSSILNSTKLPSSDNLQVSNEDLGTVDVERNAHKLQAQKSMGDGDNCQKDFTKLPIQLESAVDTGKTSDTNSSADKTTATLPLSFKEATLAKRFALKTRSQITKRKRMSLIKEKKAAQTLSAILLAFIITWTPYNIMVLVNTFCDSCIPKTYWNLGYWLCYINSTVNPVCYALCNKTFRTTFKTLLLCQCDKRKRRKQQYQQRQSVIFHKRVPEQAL
Description: Receptor binding assay in vivo, lacrimal gland. On the set-up: species or system female rats. Conditions: iv, 0.5 h, read-out: ID50, lacrimal gland. The procedure: (§1) Female rats with a body weight of about 200 g were used for these experiments. Before the start of the experiment, the animals were anaesthetised with a dose of 1.25 g/kg urethane. The animals each received the specified dose of the test substance by i.v. injection. After 15 minutes had elapsed 113 ng/kg ^3 H-N-methylscopolamine (^3 H-NMS) were administered in the same way. After a further 15 minutes, the animals were sacrificed, and the heart, the bronchi and the lacrimal glands were removed. These organs were dissolved in Soluene R, and the radioactivity was determined. These measurements were assumed to be the total binding. […] ID50 values were determined for the individual organs from these experiments.

In assay [2] the target is T2, muscarinic receptors, submandibular gland (Rattus norvegicus, UniProt P08483).
T2 construct: After removal of the heart, submandibular gland and cerebral cortex; from tissue; host or cells: rat submandibular gland homogenate
T2 sequence (P08483 whole entry): as above
Description: Receptor binding assay in vitro, submandibular gland (3H-NMS displacement). On the set-up: species or system male Sprague-Dawley rats. As to conditions: rat submandibular gland homogenate; 0.3 nmolar 3H-NMS, 30° C., 45 min, pH 7.4.

The test system of assay [3] is heart rate, conscious dog. Briefly: Effect increasing the heart rate in the conscious dog (tachycardia). The class given is in vivo. Conditions: for ED50: Canis lupus familiaris, dose for increase of 50 beats/min. As for the experimental part: The substances were either injected intravenously or administered orally, and the heart rate was measured using a tachygraph. After a control period, increasing doses of the compound were administered in order to increase the heart rate. In each case, the next dose was administered when the effect of the preceding dose was no longer evident. The dose of a substance which brought about an increase of 50 beats/min. (ED50) was determined graphically. Each substance was examined on 3 to 5 dogs.

The next assay addresses T3, M2 (Rattus norvegicus, UniProt P10980).
T3 construct: The bradycardia induced by stimulation of the vagus; from tissue; host or cells: living male THOM rat, heart
T3 sequence (P10980 1-466): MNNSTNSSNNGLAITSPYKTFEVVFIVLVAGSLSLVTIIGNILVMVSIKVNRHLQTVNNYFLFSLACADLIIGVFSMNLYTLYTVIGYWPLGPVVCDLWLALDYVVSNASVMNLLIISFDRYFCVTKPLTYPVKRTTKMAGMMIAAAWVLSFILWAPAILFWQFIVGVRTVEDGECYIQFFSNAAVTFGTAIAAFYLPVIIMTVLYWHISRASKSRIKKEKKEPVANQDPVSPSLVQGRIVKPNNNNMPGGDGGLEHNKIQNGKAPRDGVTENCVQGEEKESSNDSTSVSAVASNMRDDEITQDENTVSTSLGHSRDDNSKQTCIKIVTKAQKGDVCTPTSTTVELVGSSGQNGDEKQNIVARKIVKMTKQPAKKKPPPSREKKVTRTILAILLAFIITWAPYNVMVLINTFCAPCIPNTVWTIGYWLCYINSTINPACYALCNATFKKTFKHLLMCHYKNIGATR
Description: M1/M2 selectivity in the rat: M2-activity (vagal bradycardia). Conditions: iv, read-out: M2-activity (rat) ED50. The class given is in vivo, male THOM rats. The procedure:
The method which was used has been described by Hammer and Giachetti (Life Sciences 31, 2991-2998 (1982)). Five minutes after intravenous injection of increasing doses of the substance, either the right vagus was electrically stimulated (frequency: 25 Hz; pulse width: 2ms; stimulus duration: 30s; number of volts: supramaximal) or 0.3 mg/kg McN-A-343 was injected intravenously into male THOM rats. The bradycardia induced by stimulation of the vagus, and the increase in blood pressure caused by McN-A-343, were determined. The dose of the substances which reduced either the vagal bradycardia (M2) or the increase in blood pressure (M1) by 50% was determined graphically.

Assay [4] has as its target T4, muscarinic receptors, heart ventricle (Rattus norvegicus, UniProt P10980).
T4 construct: the heart, the bronchi and the lacrimal glands were removed; from tissue; host or cells: rat heart ventricle, labelled in vivo
T4 sequence (P10980 1-466): T3 sequence (P10980 1-466)
Briefly: Receptor binding assay in vivo, heart ventricle. On the set-up: species or system female rats. As to conditions: iv, 0.5 h, read-out: ID50, heart ventricle. The procedure:
as §1

In assay [5] the test system is muscarinic receptors, bronchi. Description: Receptor binding assay in vivo, bronchi. The arrangement: species or system female rats. Conditions: i.v.; inhibition of 50% of specific 3H-NMS binding; 30 min. As for the experimental part:
as §1

In a further assay the target is T5, M1 (Rattus norvegicus, UniProt P08482).
T5 construct: from tissue; host or cells: living male THOM rat, sympathetic ganglia (site by own knowledge)
T5 sequence (P08482 1-460): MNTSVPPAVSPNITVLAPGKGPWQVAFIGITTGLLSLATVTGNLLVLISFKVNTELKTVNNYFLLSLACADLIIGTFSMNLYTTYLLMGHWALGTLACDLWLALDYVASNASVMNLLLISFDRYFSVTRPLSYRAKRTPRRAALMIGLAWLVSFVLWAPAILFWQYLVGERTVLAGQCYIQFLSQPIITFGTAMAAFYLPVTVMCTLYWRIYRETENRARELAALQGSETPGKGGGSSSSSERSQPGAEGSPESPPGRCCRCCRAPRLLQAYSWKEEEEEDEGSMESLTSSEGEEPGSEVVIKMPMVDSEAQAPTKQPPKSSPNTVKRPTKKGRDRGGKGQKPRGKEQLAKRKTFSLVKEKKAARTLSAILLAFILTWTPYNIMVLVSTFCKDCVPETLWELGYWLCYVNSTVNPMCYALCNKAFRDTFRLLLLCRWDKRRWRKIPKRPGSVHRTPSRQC
Briefly: M1/M2 selectivity in the rat: M1-activity (increase in blood pressure caused by McN-A-343). The class given is in vivo, male THOM rats. Conditions: iv, read-out: M1-activity (rat) ED50. As for the experimental part: The dose of the substances which reduced either the vagal bradycardia (M2) or the increase in blood pressure (M1) by 50% was determined graphically.

The target in assay [6] is T6, muscarinic receptors of the atrium (Cavia porcellus, UniProt H0VRN8).
T6 construct: In the isolated, spontaneously beating right atrium, M reduced the heart rate; from tissue; host or cells: guinea pig isolated right atrium
T6 sequence (H0VRN8 1-466): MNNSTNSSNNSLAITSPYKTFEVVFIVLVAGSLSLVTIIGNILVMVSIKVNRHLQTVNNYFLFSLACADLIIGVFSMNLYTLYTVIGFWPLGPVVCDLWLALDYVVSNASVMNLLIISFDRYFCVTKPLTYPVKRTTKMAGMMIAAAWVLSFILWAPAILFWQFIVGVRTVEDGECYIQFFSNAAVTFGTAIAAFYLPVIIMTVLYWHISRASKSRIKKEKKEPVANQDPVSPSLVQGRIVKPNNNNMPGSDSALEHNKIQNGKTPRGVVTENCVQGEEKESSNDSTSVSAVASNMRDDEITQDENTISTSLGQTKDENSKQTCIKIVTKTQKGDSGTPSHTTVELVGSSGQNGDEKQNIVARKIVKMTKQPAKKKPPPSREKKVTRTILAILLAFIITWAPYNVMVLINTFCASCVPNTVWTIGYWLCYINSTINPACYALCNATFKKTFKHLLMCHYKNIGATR
Briefly: Dissociation constants in vitro on the spontaneously beating right atrium. The arrangement: species or system guinea pig. As to conditions: methacholine agonist, 30 min contact, Arunlakshana and Schild, read-out: Dissociation constant KB, heart. The procedure:
(§2) Dissociation constants (KB values) were determined "in vitro" on the ileum and spontaneously beating atrium of the guinea pig. The ileum was removed and incubated in Krebs-Henseleit solution in an organ bath. Contractions were induced by increasing concentrations of methacholine (M) in such a way that it was possible to construct complete concentration-effect curves. Then M was washed out, the substance to be investigated was added and left in contact for 30 minutes, and again a concentration-effect curve with M was constructed.
Dissociation constants for the muscarinic receptors of the atrium were obtained in the same way as described above. Comparison of the dissociation constants determined in the two tissues permitted cardioselective substances to be identified.

The target of assay [7] is T7, muscarinic receptors, ileum (Cavia porcellus, UniProt H0W1Z3).
T7 construct: The ileum was removed and incubated in Krebs-Henseleit solution in an organ bath; from tissue; host or cells: guinea pig isolated ileum
T7 sequence (H0W1Z3 1-590): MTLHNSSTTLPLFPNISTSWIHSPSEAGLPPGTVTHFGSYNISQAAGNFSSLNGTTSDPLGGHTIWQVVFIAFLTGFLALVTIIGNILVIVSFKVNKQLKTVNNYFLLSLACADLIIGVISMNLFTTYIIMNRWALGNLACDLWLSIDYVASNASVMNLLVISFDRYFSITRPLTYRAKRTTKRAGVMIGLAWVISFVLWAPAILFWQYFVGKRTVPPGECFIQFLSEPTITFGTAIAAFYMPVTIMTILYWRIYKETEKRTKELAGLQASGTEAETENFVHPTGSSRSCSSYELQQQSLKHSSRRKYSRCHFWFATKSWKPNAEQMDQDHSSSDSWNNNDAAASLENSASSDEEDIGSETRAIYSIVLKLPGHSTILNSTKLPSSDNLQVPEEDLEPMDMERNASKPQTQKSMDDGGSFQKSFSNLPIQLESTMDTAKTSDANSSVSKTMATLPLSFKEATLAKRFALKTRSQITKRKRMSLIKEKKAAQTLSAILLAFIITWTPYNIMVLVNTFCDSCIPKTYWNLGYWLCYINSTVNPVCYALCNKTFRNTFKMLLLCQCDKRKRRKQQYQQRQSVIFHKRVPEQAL
Description: Dissociation constants in vitro on the ileum. The arrangement: species or system guinea pig. Conditions: ileum contractions; methacholine agonist; 30 min contact; Arunlakshana and Schild; read-out: Dissociation constant KB, ileum. As for the experimental part: as §2

Assay [8] deals with pilocarpine-induced secretion of saliva. Briefly: Effect inhibiting secretion of saliva in the rat. It counts as in vivo, male THOM rats. Conditions: iv, 2 mg/kg pilocarpine s.c., urethane anaesthesia, read-out: Inhibition of secretion of saliva (rat) ED50. As for the experimental part: Secretion of saliva was induced by s.c. administration of 2 mg/kg pilocarpine. The saliva was absorbed using blotting paper, and the area covered by it was determined by planimetry every 5 minutes. The dose of the substance which reduced the volume of saliva by 50% was determined graphically.

In assay [9] the target is T8, muscarinic receptors, complete heart (Rattus norvegicus, UniProt P10980).
T8 sequence (P10980 1-466): T3 sequence (P10980 1-466)
Briefly: biochemical.

Assay [10] has as its target T9, muscarinic receptors, heart atrium (Rattus norvegicus, UniProt P10980).
T9 construct: the heart, the bronchi and the lacrimal glands were removed; from tissue; host or cells: rat heart atrium, labelled in vivo
T9 sequence (P10980 1-466): T3 sequence (P10980 1-466)
Description: Receptor binding assay in vivo, heart atrium. As to conditions: iv, 0.5 h, read-out: ID50, heart atrium. On the set-up: species or system female rats. The procedure:
as §1

Assay [11] has as its target muscarinic receptors, cerebral cortex. Description: Receptor binding assay in vitro, cerebral cortex (3H-NMS displacement). The arrangement: species or system male Sprague-Dawley rats. As to conditions: rat cerebral cortex homogenate; 0.3 nmolar 3H-NMS, 30° C., 45 min, pH 7.4.
Description: The organ donors were male Sprague-Dawley rats with a body weight of 180-220 g. […] Finally, all the organs were processed in a potter homogeniser. […] The organ homogenates were incubated at a defined concentration of the radio-ligand and a series of concentrations of the non-radioactive test substances in Eppendorf centrifuge tubes at 30° C. The incubation lasted 45 minutes. The radioligand used was 0.3 nmolar ^3 H-N-methylscopolamine (^3 H-NMS). The incubation was stopped by addition of ice-cold buffer, followed by a vacuum filtration. The filters were washed with cold buffer, and their radioactivity was determined. This represents the total of specific and non-specific binding of ^3 H-NMS. The contribution of the non-specific binding was defined as that radioactivity which was bound in the presence of 1 micromolar quinuclidinyl benzylate. Determinations were always carried out in quadruplicate. The IC50 values of the unlabelled test substances were determined graphically.

As to `CCN(CC)CC1CCCCN1CC(=O)N1c2ccccc2C(=O)Nc2cccnc21` (stereo not drawn) [Substance B, 11-[[2-[(diethylamino)methyl]-1-piperidinyl]acetyl]-5,11-dihydro-6H-pyrido[2,3-b][1,4]benzodiazepin-6-one], the ED50 in assay [1] worked out at 30 mg/kg.

Take `CCN(CC)CC1CCCCN1CC(=O)N1c2cc(Cl)ccc2C(=O)Nc2cccnc21` (stereo not drawn) [Substance A, 9-chloro-11-[[2-[(diethylamino)methyl]-1-piperidinyl]-acetyl]-5,11-dihydro-6H-pyrido[2,3-b]-[1,4]benzodiazepin-6-one]: the IC50 amounted to 1500 nM in assay [2], 50 nM in assay [9] and 500 nM in assay [11]. The ED50 in [3] (intravenous, read-out: Tachycardia (dog) ED50 intravenous) stood at 0.17 mg/kg; in [3] (oral, read-out: Tachycardia (dog) ED50 oral) it was 0.38 mg/kg; at M2 (50% reduction of vagal bradycardia), 0.077 mg/kg; in [4], 0.3 mg/kg; on M1 (50% reduction of McN-A-343 (0.3 mg/kg i.v.) blood pressure increase), 1.48 mg/kg; in [8], 7.57 mg/kg. For the same molecule, the ED50 in assay [1] was 30 mg/kg; in assay [10], 0.6 mg/kg. Further, the “Ratio ED50 p.o./ED50 i.v.” value in assay [3] (tachycardia, conscious dog) worked out at 2. Also, in [5], the “ID50, bronchi” value is listed as 8.0 mg/kg. For the same molecule, the Kb in [6] amounted to 14.8 nM; in [7] it was 513 nM.

For the molecule `CN1CCN(CC(=O)N2c3ccccc3C(=O)Nc3cccnc32)CC1` [Substance C, 5,11-dihydro-11-[(4-methyl-1-piperazinyl)acetyl]-6H-pyrido[2,3-b][1,4]benzodiazepin-6one], the ED50 in [8] stood at 0.084 mg/kg.

Consider `CN1[C@@H]2CC[C@H]1CC(OC(=O)C(CO)c1ccccc1)C2` (stereo partly drawn) [Substance D, atropine, reference compound], for which the ED50 was 0.004 mg/kg at M2; 0.03 mg/kg in assay [4]; 0.016 mg/kg on M1; 0.2 mg/kg in assay [1]; 0.08 mg/kg in assay [10]. Further, the “ID50, bronchi” value in [5] is listed as 0.1 mg/kg. For the same molecule, in [6], the Kb is 1.41 nM.

The term IC50 denotes the midpoint of a concentration-inhibition curve. A higher IC50 goes with weaker potency.
